Experimental data as given in ChEMBL document CHEMBL1121737, “Synthesis and evaluation of some stable multisubstrate adducts as specific inhibitors of spermidine synthase” (J Med Chem, 1981).

Assays:
[1] = molecular target: T1, Spermidine synthase (Rattus norvegicus) (UniProt Q99MI5); test: Inhibition of spermidine synthase at 100 uM concentration of the compound; values are per cent of control
T1 sequence (whole entry): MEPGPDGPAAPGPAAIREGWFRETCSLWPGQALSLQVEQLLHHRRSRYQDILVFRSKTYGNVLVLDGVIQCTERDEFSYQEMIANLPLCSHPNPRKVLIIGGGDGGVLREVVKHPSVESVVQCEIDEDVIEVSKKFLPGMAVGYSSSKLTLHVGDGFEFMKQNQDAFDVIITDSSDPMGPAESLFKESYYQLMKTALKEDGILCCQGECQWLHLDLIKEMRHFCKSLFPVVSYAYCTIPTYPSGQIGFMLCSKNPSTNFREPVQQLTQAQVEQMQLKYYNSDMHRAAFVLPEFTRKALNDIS

[2] = molecular target: T1, Spermidine synthase (Rattus norvegicus); test: Inhibition of spermidine synthase at 25 uM concentration of the compound; values are per cent of control
[3] = molecular target: T1, Spermidine synthase (Rattus norvegicus); test: Inhibition of spermidine synthase at 10 uM concentration of the compound; values are per cent of control
[4] = molecular target: T1, Spermidine synthase (Rattus norvegicus); test: Inhibition of spermidine synthase at 50 uM concentration of the compound; values are per cent of control
[5] = tested on: spermine synthase (Rattus norvegicus); test: Inhibition of spermine synthase at 100 uM concentration of the compound; values are per cent of control
[6] = tested on: spermine synthase (Rattus norvegicus); test: Inhibition of spermine synthase at 25 uM concentration of the compound; values are per cent of control
[7] = tested on: spermine synthase (Rattus norvegicus); test: Inhibition of spermine synthase at 10 uM concentration of the compound; values are per cent of control
[8] = tested on: spermine synthase (Rattus norvegicus); test: Inhibition of spermine synthase at 250 uM concentration of the compound; values are per cent of control
Spermidine synthase = molecular target: T2, Spermidine synthase (Rattus norvegicus, UniProt Q99MI5); test: Inhibitory activity against spermidine synthase; conditions: read-out: I50
T2 sequence (Q99MI5 whole entry): T1 sequence (whole entry)

[9] = molecular target: T1, Spermidine synthase (Rattus norvegicus); test: Inhibition of spermidine synthase at 250 uM concentration of the compound; values are per cent of control
[10] = tested on: spermine synthase (Rattus norvegicus); test: Inhibition of spermine synthase at 50 uM concentration of the compound; values are per cent of control
[11] = molecular target: T1, Spermidine synthase (Rattus norvegicus); test: Inhibition of spermidine synthase at 5 uM concentration of the compound; values are per cent of control

Row | SMILES | residual activity [1] [%] | residual activity [2] [%] | residual activity [3] [%] | residual activity [4] [%] | residual activity [5] [%] | residual activity [6] [%] | residual activity [7] [%] | residual activity [8] [%] | IC50 (Spermidine synthase) [µM] | residual activity [9] [%] | residual activity [10] [%] | residual activity [11] [%]
1 | CCCCCC(CC)SC[C@H]1OC(n2cnc3c(N)ncnc32)[C@H](O)[C@@H]1O (stereo partly drawn) | 104 | 102 | – | – | – | – | – | – | – | – | – | –
2 | NCCCCCC(CCN)SC[C@H]1O[C@@H](n2cnc3c(N)ncnc32)[C@H](O)[C@@H]1O (stereo partly drawn) | 1 | 3 | 3 | 1 | – | – | – | – | – | – | – | –
3 | CCCCCC(CC)[S+](C)C[C@H]1O[C@H](n2cnc3c(N)ncnc32)[C@H](O)[C@@H]1O (stereo partly drawn) | 80 | 99 | 98 | 93 | 44 | 88 | 94 | 25 | 250 | 56 | 65 | –
4 | C[S+](C[C@H]1O[C@H](n2cnc3c(N)ncnc32)[C@H](O)[C@@H]1O)C(CCN)CCCCCN (stereo partly drawn) | 8 | 31 | 68 | 16 | 41 | – | 93 | 14 | 15 | 4 | 60 | 84
